BigSolDB 2.1

Cc1nc(CCl)nc2ccccc12
solubility (mole fraction)
Settings | in THF | in acetone | in acetonitrile | in cyclohexane | in ethanol | in ethyl acetate | in isopropanol | in n-butanol | in n-hexane | in n-propanol
281.15 K | 0.229 | 0.107 | 0.0488 | 0.0193 | 0.061 | 0.105 | 0.0429 | 0.05 | 0.00825 | 0.134
286.15 K | 0.264 | 0.142 | 0.0692 | 0.0266 | 0.0771 | 0.136 | 0.0569 | 0.063 | 0.0115 | 0.145
291.15 K | 0.297 | 0.188 | 0.096 | 0.0361 | 0.0969 | 0.173 | 0.0748 | 0.081 | 0.0146 | 0.158
296.15 K | 0.339 | 0.244 | 0.13 | 0.0484 | 0.123 | 0.217 | 0.0964 | 0.101 | 0.019 | 0.172
301.15 K | 0.374 | 0.297 | 0.174 | 0.0639 | 0.152 | 0.266 | 0.123 | 0.125 | 0.0232 | 0.186
306.15 K | 0.411 | 0.373 | 0.22 | 0.0832 | 0.183 | 0.32 | 0.156 | 0.153 | 0.0289 | 0.201
311.15 K | 0.452 | 0.449 | 0.276 | 0.107 | 0.219 | 0.378 | 0.196 | 0.186 | 0.0372 | 0.217
316.15 K | 0.492 | 0.531 | 0.34 | 0.135 | 0.257 | 0.44 | 0.245 | 0.225 | 0.0476 | 0.234
321.15 K | 0.528 | 0.603 | 0.411 | 0.168 | 0.297 | 0.503 | 0.304 | 0.27 | 0.0598 | 0.253
326.15 K | 0.563 | 0.676 | 0.488 | 0.207 | 0.337 | 0.567 | 0.394 | 0.319 | 0.0751 | 0.273
331.15 K | 0.604 | 0.74 | 0.559 | 0.249 | 0.389 | 0.63 | 0.467 | 0.361 | 0.093 | 0.294
